Values of other authors as cited in patent US20030004236A1, “Magnetic resonance imaging agents for detection and delivery of therapeutic agents and detection of physiological substances” (priority 2001, published 2003).

Details: thermodynamic stability of the Gd(III) chelate; background section

| Compound | stability constant (K), also known as formation constant, logK |
| --- | --- |
| O=C([O-])CN(CCN(CC(=O)[O-])CC(=O)[O-])CCN(CC(=O)[O-])CC(=O)[O-].[Gd+3] [Gd(DTPA)^2−] | 22.4 |
| O=C([O-])CN1CCN(CC(=O)[O-])CCN(CC(=O)O)CCN(CC(=O)[O-])CC1.[Gd+3] [Gd-DOTA] | 28.5 |
